Where a SMILES comes first, the peptide text is derived from it. Bridges are numbered along the chain shown (N, C = ends). [ ]: non-standard residue; d: D form. The star is where a group is joined. hPhe(3-Cl-4-CF3) = N[C@@H](CCc1ccc(C(F)(F)F)c(Cl)c1)C(=O)O; NPrPhe(4-CF3) = CCCN[C@@H](Cc1ccc(C(F)(F)F)cc1)C(=O)O; NMeGly(cPent) = CN[C@H](C(=O)O)C1CCCC1; NMeD = CN[C@@H](CC(=O)O)C(=O)O; NMeL = CN[C@@H](CC(C)C)C(=O)O; NMeAbu = CC[C@H](NC)C(=O)O; Morpholide = C1CN(*)CCO1; NMeA = CN[C@@H](C)C(=O)O; Ac4c = NC1(C(=O)O)CCC1; Sar = CNCC(=O)O
What was measured:
[1] = target: GDP-bound KRAS wild-type protein (Homo sapiens, UniProt P01116); assay: Binding to KRAS by surface plasmon resonance (SPR), Single Cycle Kinetics; conditions: SPR, Single Cycle Kinetics, GDP-bound KRAS wild-type protein; read-out: KRAS KD
[2] = target: GDP-bound NRAS wild-type protein (Homo sapiens, UniProt P01111); assay: Binding to NRAS by surface plasmon resonance (SPR), Single Cycle Kinetics; conditions: ratio of KD for GDP-bound NRAS wild-type protein to KD for KRAS, SPR
[3] = target: GDP-bound HRAS wild-type protein (Homo sapiens, UniProt P01112); assay: Binding to HRAS by surface plasmon resonance (SPR), Single Cycle Kinetics; conditions: ratio of KD for GDP-bound HRAS wild-type protein to KD for KRAS, SPR
[4] = test system: human lung cancer strain NCI-H441; assay: cells; conditions: NCI-H441, 96 h, read-out: NCI-H441 IC50 (nM), NCI-H441 cell proliferation, 4 days, CellTiter-Glo;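 note: cell proliferation inhibition after four days measured by CellTiter-Glo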

Sequence of GDP-bound HRAS wild-type protein (P01112 whole entry): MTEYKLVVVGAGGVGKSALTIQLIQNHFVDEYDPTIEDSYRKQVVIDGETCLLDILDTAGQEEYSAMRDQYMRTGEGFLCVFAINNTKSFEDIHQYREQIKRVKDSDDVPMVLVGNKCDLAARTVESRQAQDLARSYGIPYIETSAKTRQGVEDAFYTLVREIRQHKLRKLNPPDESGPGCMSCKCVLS
Sequence of GDP-bound NRAS wild-type protein (P01111 whole entry): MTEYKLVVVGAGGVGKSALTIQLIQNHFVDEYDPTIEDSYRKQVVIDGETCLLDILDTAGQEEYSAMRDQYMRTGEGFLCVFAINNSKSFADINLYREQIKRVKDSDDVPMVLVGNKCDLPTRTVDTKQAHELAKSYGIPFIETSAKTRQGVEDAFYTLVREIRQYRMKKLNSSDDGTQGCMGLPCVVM
Sequence of GDP-bound KRAS wild-type protein (P01116 whole entry): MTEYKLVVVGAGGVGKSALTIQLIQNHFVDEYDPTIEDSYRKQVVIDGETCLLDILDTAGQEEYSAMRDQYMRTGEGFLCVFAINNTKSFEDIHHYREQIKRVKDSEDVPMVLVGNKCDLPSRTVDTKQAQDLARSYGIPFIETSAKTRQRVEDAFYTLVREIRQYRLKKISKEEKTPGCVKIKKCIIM

Row | Kd [1] [nM] | IC50 [4] [nM] | SMILES | NRAS/KRAS (KD ratio) [2] | HRAS/KRAS (KD ratio) [3]
1 | 0.17 | 18.5 | CCC[C@H]1C(=O)N[C@@H]([C@@H](C)CC)C(=O)N(C)CC(=O)N(C)[C@H]2C/C=C\CCN(C2=O)[C@@H](Cc2ccc(C)cc2)C(=O)N(C)CC(=O)N[C@@H](CCc2ccc(C(F)(F)F)c(Cl)c2)C(=O)N2C[C@@H](C)C[C@H]2C(=O)NC2(CC(C)(C)C2)C(=O)N(C)[C@@H](C2CCCC2)C(=O)N(C)[C@H](C(=O)N(C)CC)CC(=O)N1C [PP1893] | A (a compound having 10 or more and less than 20 is denoted as A) | B (a compound having 3 or more and less than 10 is denoted as B)
2 | 0.13 | 15.6 | CCC[C@H]1C(=O)N[C@@H]([C@@H](C)CC)C(=O)N(C)CC(=O)N(C)[C@H]2C/C=C\CCN(C2=O)[C@@H](Cc2ccc(C)cc2)C(=O)N(C)CC(=O)N[C@@H](CCc2ccc(C(F)(F)F)c(Cl)c2)C(=O)N2C[C@H](OCC)C[C@H]2C(=O)NC2(CCC2)C(=O)N(C)[C@@H](C2CCCC2)C(=O)N(C)[C@H](C(=O)N(C)CC)CC(=O)N1C [PP1895] | A (a compound having 10 or more and less than 20 is denoted as A) | B (a compound having 3 or more and less than 10 is denoted as B)
3 | 0.06 | 5.3 | CCC[C@H]1C(=O)N[C@@H]([C@@H](C)CC)C(=O)N(C)CC(=O)N(C)[C@H]2C/C=C\CCN(C2=O)[C@@H](Cc2ccc(C)cc2)C(=O)N(C)CC(=O)N[C@@H](CCc2ccc(C(F)(F)F)c(Cl)c2)C(=O)N2C[C@H](OCC)C[C@H]2C(=O)NC2(CC(C)(C)C2)C(=O)N(C)[C@@H](C2CCCC2)C(=O)N(C)[C@H](C(=O)N(C)C)CC(=O)N1C [PP1896] | A (a compound having 10 or more and less than 20 is denoted as A) | B (a compound having 3 or more and less than 10 is denoted as B)
4 | 0.13 | 6.3 | CC[C@H](C)[C@@H]1NC(=O)[C@H](CC2CC2)N(C)C(=O)C[C@@H](C(=O)N(C)C)N(C)C(=O)[C@H](C2CCCC2)N(C)C(=O)C2(CC(C)(C)C2)NC(=O)[C@@H]2C[C@H](C)CN2C(=O)[C@H](CCc2ccc(C(F)(F)F)c(OC)c2)NC(=O)CN(C)C(=O)[C@H](Cc2ccc(C)cc2)N2CC/C=C\C[C@@H](C2=O)N(C)C(=O)CN(C)C1=O [PP1898] | B (a compound having 3 or more and less than 10 is denoted as B) | B (a compound having 3 or more and less than 10 is denoted as B)
5 | 0.12 | 18.3 | CC[C@H](C)[C@@H]1NC(=O)[C@H](CC(C)C)N(C)C(=O)C[C@@H](C(=O)N(C)CC)N(C)C(=O)[C@H](C2CCCC2)N(C)C(=O)C2(CCC2)NC(=O)[C@@H]2C[C@H](C)CN2C(=O)[C@H](CCc2ccc(C(F)(F)F)c(OC)c2)NC(=O)CN(C)C(=O)[C@H](Cc2ccc(C)cc2)N2CC/C=C\C[C@@H](C2=O)N(C)C(=O)CN(C)C1=O [PP1904] | A (a compound having 10 or more and less than 20 is denoted as A) | B (a compound having 3 or more and less than 10 is denoted as B)
6 | 0.15 | 10.8 | CC[C@H](C)[C@@H]1NC(=O)[C@H](CC(C)C)N(C)C(=O)C[C@@H](C(=O)N(C)CC)N(C)C(=O)[C@H](C2CCCC2)N(C)C(=O)C2(CC(C)(C)C2)NC(=O)[C@@H]2C[C@H](C)CN2C(=O)[C@H](CCc2ccc(C(F)(F)F)c(OC)c2)NC(=O)CN(C)C(=O)[C@H](Cc2ccc(C)cc2)N2CC/C=C\C[C@@H](C2=O)N(C)C(=O)CN(C)C1=O [PP1906] | A (a compound having 10 or more and less than 20 is denoted as A) | A (a compound having 10 or more and less than 20 is denoted as A)
7 | 0.17 | 23.6 | CC[C@H](C)[C@@H]1NC(=O)[C@H](CC(C)C)N(C)C(=O)C[C@@H](C(=O)N(C)CC)N(C)C(=O)[C@H](C2CCCC2)N(C)C(=O)C2(CCC2)NC(=O)[C@@H]2C[C@@H](C)CN2C(=O)[C@H](CCc2ccc(C(F)(F)F)c(OC)c2)NC(=O)CN(C)C(=O)[C@H](Cc2ccc(C)cc2)N2CC/C=C\C[C@@H](C2=O)N(C)C(=O)CN(C)C1=O [PP1907] | AA (a compound having 20 or more is denoted as AA) | A (a compound having 10 or more and less than 20 is denoted as A)
8 | 0.11 | 10.1 | CC[C@H](C)[C@@H]1NC(=O)[C@H](CC(C)C)N(C)C(=O)C[C@@H](C(=O)N(C)C)N(C)C(=O)[C@H](C2CCCC2)N(C)C(=O)C2(CC(C)(C)C2)NC(=O)[C@@H]2C[C@@H](C)CN2C(=O)[C@H](CCc2ccc(C(F)(F)F)c(OC)c2)NC(=O)CN(C)C(=O)[C@H](Cc2ccc(C)cc2)N2CC/C=C\C[C@@H](C2=O)N(C)C(=O)CN(C)C1=O [PP1908] | A (a compound having 10 or more and less than 20 is denoted as A) | B (a compound having 3 or more and less than 10 is denoted as B)
9 | 0.34 | 15.3 | CC[C@H](C)[C@@H]1NC(=O)[C@H](CC(C)C)N(C)C(=O)C[C@@H](C(=O)N(C)CC)N(C)C(=O)[C@H](C2CCCC2)N(C)C(=O)C2(CC(C)(C)C2)NC(=O)[C@@H]2C[C@@H](C)CN2C(=O)[C@H](CCc2ccc(C(F)(F)F)c(OC)c2)NC(=O)CN(C)C(=O)[C@H](Cc2ccc(C)cc2)N2CC/C=C\C[C@@H](C2=O)N(C)C(=O)CN(C)C1=O [PP1909] | A (a compound having 10 or more and less than 20 is denoted as A) | B (a compound having 3 or more and less than 10 is denoted as B)
10 | 0.21 | 11.7 | CC[C@H](C)[C@@H]1NC(=O)[C@H](CC(F)F)N(C)C(=O)C[C@@H](C(=O)N(C)CC)N(C)C(=O)[C@H](C2CCCC2)N(C)C(=O)C2(CC(C)(C)C2)NC(=O)[C@@H]2C[C@H](C)CN2C(=O)[C@H](CCc2ccc(C(F)(F)F)c(Cl)c2)NC(=O)CN(C)C(=O)[C@H](Cc2ccc(C)cc2)N2CC/C=C\C[C@@H](C2=O)N(C)C(=O)CN(C)C1=O [PP1911] | A (a compound having 10 or more and less than 20 is denoted as A) | A (a compound having 10 or more and less than 20 is denoted as A)
11 | 0.37 | 44 | CCO[C@@H]1C[C@H]2C(=O)NC3(CC(C)(C)C3)C(=O)N(CC)[C@@H](C3CCCC3)C(=O)N(C)[C@H](C(=O)N(C)C)CC(=O)N(C)[C@@H](CC)C(=O)N[C@@H]([C@@H](C)CC)C(=O)N(C)CC(=O)N(C)[C@H]3C/C=C\CCN(C3=O)[C@@H](Cc3ccc(C(F)(F)F)cc3)C(=O)N(C)CC(=O)N[C@@H](CCc3cc(F)c(C(F)(F)F)c(F)c3)C(=O)N2C1 [PP1913] | A (a compound having 10 or more and less than 20 is denoted as A) | A (a compound having 10 or more and less than 20 is denoted as A)
12 | 0.31 | 18.5 | CCO[C@@H]1C[C@H]2C(=O)NC3(CC(C)(C)C3)C(=O)N(C)[C@@H](C3CCCC3)C(=O)N(C)[C@H](C(=O)N(C)C)CC(=O)N3CCCCC[C@H]3C(=O)N[C@@H]([C@@H](C)CC)C(=O)N(C)CC(=O)N(C)[C@H]3C/C=C\CCN(C3=O)[C@@H](Cc3ccc(C(F)(F)F)cc3)C(=O)N(C)CC(=O)N[C@@H](CCc3cc(F)c(C(F)(F)F)c(F)c3)C(=O)N2C1 [PP1915] | A (a compound having 10 or more and less than 20 is denoted as A) | A (a compound having 10 or more and less than 20 is denoted as A)
13 | 0.49 | 16.8 | CCCN1C(=O)CN(C)C(=O)CN(C)C(=O)[C@H]([C@@H](C)CC)NC(=O)[C@H](CC(C)C)N(C)C(=O)C[C@@H](C(=O)N2CCOCC2)N(C)C(=O)[C@H](C2CCCC2)N(C)C(=O)C2(CCC2)NC(=O)[C@H](C)N(C)C(=O)[C@H](CCc2ccc(C(F)(F)F)c(Cl)c2)NC(=O)CN(C)C(=O)[C@@H]1Cc1ccc(C(F)(F)F)cc1 [PP1916] ([NMeL]I[Sar][Sar][NPrPhe(4-CF3)][Sar][hPhe(3-Cl-4-CF3)][NMeA][Ac4c][NMeGly(cPent)][NMeD]-Morpholide; lactam N-11) | B (a compound having 3 or more and less than 10 is denoted as B) | C (A compound having a KD ratio of 0.1 or more and less than 3 is denoted as C)
14 | 0.29 | 22.5 | CCCN(C)C(=O)[C@@H]1CC(=O)N(C)[C@@H](CC(C)C)C(=O)N[C@@H]([C@@H](C)OC)C(=O)N(C)CC(=O)N(C)[C@H]2C/C=C\CCN(C2=O)[C@@H](Cc2ccc(C(F)(F)F)cc2)C(=O)N(C)CC(=O)N[C@@H](CCc2cc(F)c(C(F)(F)F)c(F)c2)C(=O)N2C[C@H](OCC)C[C@H]2C(=O)NC2(CC(C)(C)C2)C(=O)N(C)[C@@H](C2CCCC2)C(=O)N1C [PP1917] | A (a compound having 10 or more and less than 20 is denoted as A) | A (a compound having 10 or more and less than 20 is denoted as A)
15 | 0.19 | 32.8 | CCCN1C(=O)CN(C)C(=O)CN(C)C(=O)[C@H]([C@@H](C)CC)NC(=O)[C@H](CC(C)C)N(C)C(=O)C[C@@H](C(=O)N2CCOCC2)N(C)C(=O)[C@H](C2CCCC2)N(C)C(=O)C2(CCC2)NC(=O)[C@H](CC)N(C)C(=O)[C@H](CCc2ccc(C(F)(F)F)c(Cl)c2)NC(=O)CN(C)C(=O)[C@@H]1Cc1ccc(C(F)(F)F)cc1 [PP1918] ([NMeL]I[Sar][Sar][NPrPhe(4-CF3)][Sar][hPhe(3-Cl-4-CF3)][NMeAbu][Ac4c][NMeGly(cPent)][NMeD]-Morpholide; lactam N-11) | B (a compound having 3 or more and less than 10 is denoted as B) | C (A compound having a KD ratio of 0.1 or more and less than 3 is denoted as C)
